Several values for one entry are separate records, joined by “and”; a condition that tells them apart may be missing. Identical values can stand only once. Inconclusive results and toxic doses are left out. The calls were made as follows: active = survival T/C of 150% or more; inactive = T/C below 125% in these data.
Tested on: CD2F1 mice, L1210 leukemia ip, survival T/C
Experiment: NCI In Vivo Anticancer Drug Screen. Data for tumor model L1210 Leukemia (intraperitoneal) in CD2F1 (CDF1) mice
Details: endpoint: mean survival time, higher = longer survival
How it was run: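 Ratio T/C, where T is the treated-group value and C the vehicle-dosed control value, from mice implanted with a transplantable tumor.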

[1] = dose: 100.0 mg/kg/injection, schedule: Q01DX001 (ip), vehicle: saline with Tween-80
[2] = dose: 200.0 mg/kg/injection, schedule: Q01DX001 (ip), vehicle: saline with Tween-80
[3] = dose: 400.0 mg/kg/injection, schedule: Q01DX001 (ip), vehicle: saline with Tween-80
[4] = dose: 100.0 mg/kg/injection, schedule: Q04DX003 (ip), vehicle: saline with Tween-80
[5] = dose: 200.0 mg/kg/injection, schedule: Q04DX003 (ip), vehicle: saline with Tween-80
[6] = dose: 400.0 mg/kg/injection, schedule: Q04DX003 (ip), vehicle: saline with Tween-80
[7] = dose: 50.0 mg/kg/injection, schedule: Q04DX003 (ip), vehicle: saline
[8] = dose: 100.0 mg/kg/injection, schedule: Q04DX003 (ip), vehicle: Klucel (hydroxypropylcellulose) (HPC)
[9] = dose: 200.0 mg/kg/injection, schedule: Q04DX003 (ip), vehicle: Klucel (hydroxypropylcellulose) (HPC)
[10] = dose: 100.0 mg/kg/injection, schedule: Q01DX009 (ip), vehicle: saline with Tween-80
[11] = dose: 200.0 mg/kg/injection, schedule: Q01DX009 (ip), vehicle: saline with Tween-80
[12] = dose: 25.0 mg/kg/injection, schedule: Q01DX009 (ip), vehicle: water
[13] = dose: 50.0 mg/kg/injection, schedule: Q01DX009 (ip), vehicle: water
[14] = dose: 100.0 mg/kg/injection, schedule: Q04DX003 (ip), vehicle: saline

Measured: T/C

Cc1ccc(C2=C(Br)C(=O)C(c3ccc(C)cc3C)=C(Br)C2=O)c(C)c1
inactive: [1] 92 % of control | [2] 92 % of control | [3] 101 % of control

Nc1ccccc1-c1ccc([N+](=O)[O-])cc1
inactive: [4] 94 % of control | [5] 92 % of control | [6] 101 % of control

Clc1nc2nc[nH]c2nc1Cl
inactive: dose: 25.0 mg/kg/injection, schedule: Q01DX009 (ip), vehicle: saline sonified 97 % of control | dose: 50.0 mg/kg/injection, schedule: Q01DX009 (ip), vehicle: saline sonified 89 % of control | dose: 100.0 mg/kg/injection, schedule: Q01DX009 (ip), vehicle: saline sonified 98 % of control

CC1(C)N=C(N)N=C(N)N1c1ccc(C(C#N)CCCc2ccccc2)cc1 (stereo not given)
inactive: dose: 25.0 mg/kg/injection, schedule: Q01DX009 (ip), vehicle: Klucel (hydroxypropylcellulose) (HPC) 97 % of control | dose: 50.0 mg/kg/injection, schedule: Q01DX009 (ip), vehicle: Klucel (hydroxypropylcellulose) (HPC) 101 % of control | dose: 100.0 mg/kg/injection, schedule: Q01DX009 (ip), vehicle: Klucel (hydroxypropylcellulose) (HPC) 91 % of control

CC(=O)SCCC(=O)O
inactive: dose: 25.0 mg/kg/injection, schedule: Q04DX003 (ip), vehicle: saline 96 % of control | [7] 104 % of control

C[C@@H](C[P+](c1ccccc1)(c1ccccc1)c1ccccc1)[C@](OC(=O)c1ccccc1)(C(=O)c1ccccc1)c1ccccc1
inactive: dose: 6.25 mg/kg/injection, schedule: Q01DX001 (ip), vehicle: saline with Tween-80 100 % of control | dose: 12.5 mg/kg/injection, schedule: Q01DX001 (ip), vehicle: saline with Tween-80 105 % of control | dose: 25.0 mg/kg/injection, schedule: Q01DX001 (ip), vehicle: saline with Tween-80 109 % of control

CCOC(=O)N(C)CC1C(=O)Nc2ccccc21 (stereo not given)
inactive: [8] 105 % of control | [9] 110 % of control | dose: 400.0 mg/kg/injection, schedule: Q04DX003 (ip), vehicle: Klucel (hydroxypropylcellulose) (HPC) 102 % of control

CC(=O)c1c(C(=O)O)c(=O)oc2cc(O)ccc12
inactive: dose: 75.0 mg/kg/injection, schedule: Q01DX001 (ip), vehicle: saline 98 % of control | dose: 150.0 mg/kg/injection, schedule: Q01DX001 (ip), vehicle: saline 98 % of control | dose: 300.0 mg/kg/injection, schedule: Q01DX001 (ip), vehicle: saline 98 % of control

c1cc2c3c(cccc3c1)/C(=C1/Cc3cccc4cccc1c34)C2
inactive: [10] 107 % of control | [4] 103 % of control | [11] 113 % of control | [5] 104 % of control | dose: 400.0 mg/kg/injection, schedule: Q01DX009 (ip), vehicle: saline with Tween-80 110 % of control | [6] 107 % of control

Nc1ccc(OCC(=O)O)cc1
inactive: [1] 101 % of control | [2] 98 % of control | [3] 110 % of control

O=c1cc(Nc2ccc(Br)cc2)[nH]c(=O)[nH]1
inactive: dose: 100.0 mg/kg/injection, schedule: Q01DX001 (ip), vehicle: other 92 % of control | dose: 200.0 mg/kg/injection, schedule: Q01DX001 (ip), vehicle: other 92 % of control

Cc1cc(C)c(COCc2cc(C)c(C)cc2C)cc1C
inactive: [12] 97 % of control | [13] 86 % of control | dose: 100.0 mg/kg/injection, schedule: Q01DX009 (ip), vehicle: water 92 % of control | dose: 200.0 mg/kg/injection, schedule: Q01DX009 (ip), vehicle: water 101 % of control | dose: 400.0 mg/kg/injection, schedule: Q01DX009 (ip), vehicle: water 103 % of control

Nc1nc(N)c2nc(CSc3ccc(C(=O)NC(CCC(=O)O)C(=O)O)cc3)cnc2n1 (stereo not given)
inactive: dose: 1.5 mg/kg/injection, schedule: Q01DX009 (ip), vehicle: distilled water + Tween-80 96 % of control | dose: 3.0 mg/kg/injection, schedule: Q01DX009 (ip), vehicle: distilled water + Tween-80 86 % of control | dose: 6.0 mg/kg/injection, schedule: Q01DX009 (ip), vehicle: distilled water + Tween-80 100 % of control and 101 % of control | dose: 12.0 mg/kg/injection, schedule: Q01DX009 (ip), vehicle: distilled water + Tween-80 115 % of control and 110 % of control | dose: 24.0 mg/kg/injection, schedule: Q01DX009 (ip), vehicle: distilled water + Tween-80 117 % of control and 120 % of control

CN(C)CCN(C)CCN(C)CCN(C)C
inactive: [14] 95 % of control | dose: 200.0 mg/kg/injection, schedule: Q04DX003 (ip), vehicle: saline 97 % of control | dose: 400.0 mg/kg/injection, schedule: Q04DX003 (ip), vehicle: saline 108 % of control

CC1(C)COC(=O)C(C)(C)C1=O
inactive: dose: 25.0 mg/kg/injection, schedule: Q04DX002 (ip), vehicle: saline with Tween-80 107 % of control | dose: 50.0 mg/kg/injection, schedule: Q04DX002 (ip), vehicle: saline with Tween-80 96 % of control | dose: 100.0 mg/kg/injection, schedule: Q04DX002 (ip), vehicle: saline with Tween-80 96 % of control

CC1CCCN(N=Nc2ccccc2-c2nc(N)c3ccccc3n2)C1 (stereo not given)
inactive: dose: 100.0 mg/kg/injection, schedule: Q04DX002 (ip), vehicle: Klucel (hydroxypropylcellulose) (HPC) 88 % of control | dose: 200.0 mg/kg/injection, schedule: Q04DX002 (ip), vehicle: Klucel (hydroxypropylcellulose) (HPC) 92 % of control | dose: 400.0 mg/kg/injection, schedule: Q04DX002 (ip), vehicle: Klucel (hydroxypropylcellulose) (HPC) 95 % of control

O=C(COc1cccc(Cl)c1)NCc1ccccc1
inactive: [4] 99 % of control | [5] 96 % of control | [6] 99 % of control

CC(C)CCCC(C)C1CCC2C3CC=C4CC(O)CCC4(C)C3CCC12C (stereo not given) (tested in a mixture with another compound)
inactive: dose: 12.5 mg/kg/injection, schedule: Q01DX009 (ip), vehicle: water 102 % of control | [12] 100 % of control | [13] 102 % of control

O=C1[O][Sb]23[O]C(=O)C([O]2)C(O)C(O)C2[O][Sb]4([O]C(=O)C([O]4)C(O)C(O)C1[O]3)[O]C2=O (stereo not given)
inactive: dose: 25.0 mg/kg/injection, schedule: Q01DX009 (ip), vehicle: saline 95 % of control | dose: 50.0 mg/kg/injection, schedule: Q01DX001 (ip), vehicle: saline 97 % of control | dose: 50.0 mg/kg/injection, schedule: Q01DX009 (ip), vehicle: saline 95 % of control | [7] 87 % of control | dose: 100.0 mg/kg/injection, schedule: Q01DX001 (ip), vehicle: saline 101 % of control | dose: 100.0 mg/kg/injection, schedule: Q01DX009 (ip), vehicle: saline 98 % of control | [14] 91 % of control | dose: 200.0 mg/kg/injection, schedule: Q01DX001 (ip), vehicle: saline 96 % of control

CCC(CCC(C)C1CCC2C3CC=C4CC(O)CCC4(C)C3CCC12C)C(C)C (stereo not given) (tested in a mixture with another compound)
inactive: dose: 25.0 mg/kg/injection, schedule: Q01DX009 (ip), vehicle: acetone 93 % of control | dose: 100.0 mg/kg/injection, schedule: Q01DX009 (ip), vehicle: acetone 87 % of control

O=CC1C(=O)N(c2ccccc2)c2ccccc21 (stereo not given)
inactive: dose: 50.0 mg/kg/injection, schedule: Q04DX003 (ip), vehicle: Klucel (hydroxypropylcellulose) (HPC) 98 % of control | [8] 106 % of control | [9] 96 % of control

Fc1cc(F)c(F)c(-c2c(F)c(F)cc(F)c2F)c1F
inactive: dose: 50.0 mg/kg/injection, schedule: Q01DX009 (ip), vehicle: saline with Tween-80 103 % of control | [10] 103 % of control | [11] 96 % of control
